Experiment: Dose-ranging clinical trial of GW320659 for weight loss: absolute change in body weight week 0 to week 24, by genotype
Format: in vivo, human
Settings: for Placebo adjusted mean absolute change in body weight / Placebo adjusted mean absolute change in weight: 15 mg dose group
Excerpt: The present inventors determined that the genetic polymorphisms identified herein are associated with differences in phenotypic response to treatment with the neuronal monoamine reuptake inhibitor GW320659. In the present study, the genotyped subjects had been recruited from a randomized placebo-controlled study of GW320659 for the treatment of obesity, in conjunction with a mildly hypocaloric diet and brief weight management guidance. Subjects had been randomized into one of five treatment groups: placebo or GW320659 at 2.5 mg/day, 5 mg/day, 10 mg/day, or 15 mg/day; outcome measurements included weight loss over baseline weight and changes in supine heart rate, supine diastolic blood pressure, and supine systolic blood pressure.
The primary outcome measurement was the individual's absolute change from baseline body weight (weight at week 0, randomization visit) to weight after 24 weeks of treatment. Genotypes associated with at least a 5.8 kg average weight loss over the 24 week study for subjects receiving 15 mg/day GW320659 are shown in Table 2. The average weight loss in the total (non-genotyped) clinical trial of GW320659 (at the 15 mg/day dosage) was 3.7 Kg (data not shown).
Using genotyping methods as are well known in the art, genetic data were obtained from approximately 200 of more than 500 human subjects enrolled in a dose-ranging efficacy and safety study of GW320659 for weight loss (main study group; a randomized, double-blind, placebo controlled, dose-ranging clinical trial); GW320659 was used in conjunction with a mildly hypocaloric diet and brief weight management guidance. Subjects were between the ages of 18-65 years, with a Body Mass Index (BMI) of 30-40, and were not on any psychotropic medications or other anti-obesity medications. Subjects were randomized into one of five treatment groups: placebo or GW320659 at 2.5 mg/day, 5 mg/day, 10 mg/day, or 15 mg/day (oral administration). In the main study group, for the GW320659 15 mg/day dosage, average weight loss was approximately 3.7 kg (108 subjects; data not shown).
Subjects were assessed for various parameters, including absolute change in body weight from week 0 to week 24 of the study; supine heart rate, diastolic blood pressure and systolic blood pressure at multiple predetermined time-points across the study; and change in Food Craving Inventory (Total) score from week 0 to week 24.
Change in body weight was analyzed using Analysis of Variance (ANOVA); body weight at Week 0 (randomization visit) was used as the baseline weight. The absolute change from baseline in body weight at week 24 was the dependent (response) variable. The primary independent variables were treatment group and genotype. Treatment by genotype interaction was assessed with the appropriate orthogonal trend (treatment) by genotype contrasts. […] The primary model is denoted as follows:
Recursive partioning (HelixTree Software, May 1, 2001) was used to further examine the data. Due to sample size constraints, a combination of automatic and manual splits were used to best describe the underlying relationships between genotypes, treatment dose, and other demographic variables for each selected endpoint. Recursive partioning was applied to the following endpoints: change in weight, change in food craving (total score) inventory, change (Area Under the Curve (AUC) adjusted) in supine heart rate, and change (AUC adjusted) in supine diastolic blood pressure.
The multilocus genotypes from each individual were used to enumerate all possible haplotypes. These haplotypes were assigned starting frequencies. The haplotype frequencies were updated with frequencies calculated from all the possible haplotypes from each individual in the sample. This continued until the frequencies were constant from iteration to iteration.
Regression-based models were used to relate inferred haplotype probabilities for each individual with the continuous response.

With C[C@@H]1CO[C@@](O)(c2cc(F)cc(F)c2)[C@H](C)N1.Cl [GW320659, (2S,3S,5R)-2-(3,5-difluorophenyl)-3,5-dimethyl-2-morpholinol] the “Average weight loss, main study group” value (15 mg/day oral, 108 subjects, data not shown) was “approximately 3.7 kg”, the “Average weight loss, total (non-genotyped) clinical trial” value (15 mg/day, 24 weeks, not divided by genotype, data not shown) was 3.7 kg and the Average weight loss (5HTT Del-Ins (1,2) genotype, 15 mg/day dose) was -5.2 kg. For the same molecule, the “Average Weight Loss (Kg)(range)” value (5HTT G160A genotype 2,2, 15 mg/day, 24 weeks) was −6.1 (−10.3, −3.2) Kg, the “Average Weight Loss (Kg)(range)” value (5HTT G769T genotype 1,1, 15 mg/day, 24 weeks) was −6.0 (−9.5, −3.2) Kg and the “Average Weight Loss (Kg)(range)” value (DAT1 genotype 9,9, 15 mg/day, 24 weeks) was −7.6 (−22.1, −1.1) Kg. For the same molecule, the “Average Weight Loss (Kg)(range)” value (DAT1 genotype 10,9, 15 mg/day, 24 weeks) was −6.6 (−20.4, 1.3) Kg, the “Average Weight Loss (Kg)(range)” value (NET1 C120A genotype 2,2, 15 mg/day, 24 weeks) was −5.8 (−20.4, 1.3) Kg and the “Absolute change in weight (largest for any sub-group)” value (NET1 G155A 2,2 genotype, 15 mg dose, n=4) was -9.0 kg. For the same molecule, the “Average Weight Loss (Kg)(range)” value (NET1 G155A genotype 2,2, 15 mg/day, 24 weeks) was −9.0 (−20.4, −3.3) Kg, the “Mean absolute change in weight” value (NET1 T342C 2,2 genotype, 15 mg dose, n=7) was -7.1 kg and the “Weight loss compared to subjects with alternate genotypes” value (NET1 T342C (2,2) and without DRD2 C12121T (2,2), 10 mg/day or 15 mg/day) was “increased weight loss”. The “Placebo adjusted mean absolute change in body weight” value (NET1 T342C genotype 1,1) was -2.8 kg, the “Placebo adjusted mean absolute change in body weight” value (NET1 T342C genotype 1,2) was -3.3 kg and the “Placebo adjusted mean absolute change in body weight” value (NET1 T342C genotype 2,2) was -7.3 kg. The “Average Weight Loss (Kg)(range)” value (NET1 T342C genotype 2,2, 15 mg/day, 24 weeks) was −7.1 (−13.7, 0) Kg, the “Average Weight Loss (Kg)(range)” value (NR1 G1001C genotype 1,2, 15 mg/day, 24 weeks) was −6.0 (−13.7, −0.9) Kg and the “Placebo adjusted mean absolute change in weight” value (NR1 G6435A genotype 1,1) was -4.4 kg. For the same molecule, the “Placebo adjusted mean absolute change in weight” value (NR1 G6435A genotype 1,2) was -1.9 kg, the “Placebo adjusted mean absolute change in weight” value (NR1 G6435A genotype 2,2, three placebo and four GW320659 subjects) was -10.3 kg and the “Average Weight Loss (Kg)(range)” value (NR1 G6435A genotype 2,2, 15 mg/day, 24 weeks) was −6.9 (−9.2, −3.3) Kg. For the same molecule, the “Weight Loss at 24 weeks, Mean” value (haplotype 1,1 NET1G155A NET1T342C, All Ethnicities, 10-15 mg (Table 4)) was −2.007, the “Weight Loss at 24 weeks, Mean” value (haplotype 1,1 NET1G155A NET1T342C, Caucasians, 10-15 mg (Table 5)) was −1.739 and the “Weight Loss at 24 weeks, Mean” value (haplotype 1,2 NET1G155A NET1T342C, All Ethnicities, 10-15 mg (Table 4)) was −4.325. The “Weight Loss at 24 weeks, Mean” value (haplotype 1,2 NET1G155A NET1T342C, Caucasians, 10-15 mg (Table 5)) was −4.416, the “Weight Loss at 24 weeks, Mean” value (haplotype 2,1 NET1G155A NET1T342C, All Ethnicities, 10-15 mg (Table 4)) was −3.886 and the “Weight Loss at 24 weeks, Mean” value (haplotype 2,1 NET1G155A NET1T342C, Caucasians, 10-15 mg (Table 5)) was −2.9211. The “Weight Loss at 24 weeks, Mean” value (haplotype 2,2 NET1G155A NET1T342C, All Ethnicities, 10-15 mg (Table 4)) was −9.99, the “Weight Loss at 24 weeks, Mean” value (haplotype 2,2 NET1G155A NET1T342C, Caucasians, 10-15 mg (Table 5)) was −9.413 and the Mean weight loss (subgroup 2,2 for NET1T342C and/or NET1G155A and/or NR1G6435A, 10 mg/day+15 mg/day combined, 24 weeks) was 6.05 kg. For the same molecule, the “Change in weight at Week 24” value (subgroup 2/2 NET1T342C and/or 2/2 NET1G155A and/or 2/2 NR1G6435A, 10 mg/day+15 mg/day, 26 subjects) was -6.05 kg, the “Mean weight loss at 24 weeks” value (subgroup 2/2 for NET1T342C and not 2/2 for DRD2C12121T) was ≥ 6 kg and the Mean weight loss (subgroup DAT1VNTR 10,9 or 9,9, 15 mg/day, 24 weeks) was 6.89 kg.

— patent US20030100479A1, “Gene polymorphisms and response to treatment” (priority 2001, published 2003)
